Measured values published in paper PMC5517430, “2,3,7,8-Tetrachlorodibenzo-p-dioxin (TCDD)-elicited effects on bile acid homeostasis: Alterations in biosynthesis, enterohepatic circulation, and microbial metabolism” (Scientific Reports, 2017).

Experiments:
[1] = system: hepatic cholesterol; set-up: method as in PMID 28238261; conditions: male C57BL/6 mice, 30 µg/kg TCDD every 4 d for 28 d, cited from earlier work
[2] = system: liver of C57BL/6 mice; experiment: Histopathological scoring of liver sections; assay type: in vivo, mouse; set-up: Fibrosis (periportal), Mean Grade / Vacuolation (centrilobular), Mean Grade / Necrosis; Inflammatory cell foci, Mean Grade / Bile duct proliferation, Mean Grade: scale not given here; conditions: for Bile duct proliferation, Mean Grade / Fibrosis (periportal), Mean Grade / Necrosis; Inflammatory cell foci, Mean Grade / Vacuolation (centrilobular), Mean Grade: mean ±SD; for Dose at which hepatocyte vacuolization (fatty change) was first observed / Doses at which minimal to slight hepatocyte necrosis and inflammatory cell infiltration were present: every 4 d for 28 d
Protocol: Postnatal day 25 (PND25) male C57BL/6 mice weighing within 10% of each other were obtained from Charles River Laboratories (Kingston, NY) and housed in Innovive Innocages (San Diego, CA) containing ALPHA-dri bedding (Shepherd Specialty Papers, Chicago, IL) in a 23 °C environment with 30–40% humidity and a 12-hour light/dark cycle (7am–7 pm). Mice were provided Aquavive water (Innovive) and Harlan Teklad 22/5 Rodent Diet 8940 (Madison, WI) ad libitum, and were acclimated for […] prior to treatment. Beginning on PND28, animals (n = 8; co-housed 4 per cage) were orally gavaged with sesame oil vehicle (Sigma-Aldrich, St. Louis, MO), 0.01, 0.03, 0.1, 0.3, 1, 3, 10, or 30 μg/kg TCDD (AccuStandard, New Haven, CT) every 4d for a total of 28d (7 exposures; Supplementary Fig. S3). The doses used compensate for the relatively short study duration compared to lifelong cumulative human exposure from diverse AhR ligands, the bioaccumulative nature of halogenated AhR ligands, and differences in TCDD’s metabolism and half-life (humans: 1–11 years, [61], mice: 8–12d[62]). TCDD doses between 0.01 and 30 µg/kg result in mouse hepatic tissue levels that span human background serum concentrations reported in the United States, Germany, Spain, and the United Kingdom as well as serum levels in Viktor Yushchenko 4–39 months following intentional poisoning. For the histopathological comparison, female C57BL/6 mice were orally gavaged with sesame oil vehicle or 0.01–30 µg/kg TCDD every 4d for 28d, as previously described. All animal handling procedures were performed with the approval of the Michigan State University (MSU) Institutional Animal Care and Use Committee, in accordance with the relevant ethical guidelines and regulations.
All processing was performed by the MSU Investigative Histopathology Laboratory (https://humanpathology.natsci.msu.edu/). Formalin-fixed hepatic tissues were vacuum infiltrated with paraffin using a Tissue-Tek VIP 2000 tissue processor (Sakura) and embedded with the Thermo Fisher HistoCentre III Embedding Center (Thermo Fisher, Waltham, Massachusetts). Paraffin blocks were sectioned at 4–5 µm with a Reichert Jung 2030 rotary microtome (Reichert, Depew, New York) and dried for 2–24 h at 56 °C to ensure adherence to the slides. For lipid staining, liver sections frozen in O.C.T. compound were sectioned at 6 µm, fixed in 10% NBF for 5 min, rinsed with water, and immersed in 100% propylene glycol for 5 min. Liver sections were stained with hematoxylin and eosin (H&E) for general histological assessment. Lipids were stained using Oil Red O (ORO) as previously described. Macrophages were labeled using a monoclonal anti-mouse F4/80 antibody (1:100 dilution; AbD Serotec, Raleigh, NC). Collagen was stained with 0.1% Picro-Sirius Red (PSR) dye, with Weigert’s Hematoxylin nuclear dye. Histological assessment of hepatic tissue from female C57BL/6 mice was performed as previously described, [32].

[3] = female, 0.3 µg/kg TCDD every 4 d for 28 d
[4] = female, 1 µg/kg TCDD every 4 d for 28 d
[5] = female, 3 µg/kg TCDD every 4 d for 28 d
[6] = female, 10 µg/kg TCDD every 4 d for 28 d
[7] = female, 30 µg/kg TCDD every 4 d for 28 d
[8] = male, 0.3 µg/kg TCDD every 4 d for 28 d
[9] = male, 1 µg/kg TCDD every 4 d for 28 d
[10] = male, 3 µg/kg TCDD every 4 d for 28 d
[11] = male, 10 µg/kg TCDD every 4 d for 28 d
[12] = male, 30 µg/kg TCDD every 4 d for 28 d

Clc1cc2c(cc1Cl)Oc1cc(Cl)c(Cl)cc1O2 [TCDD, 2,3,7,8-tetrachlorodibenzo-p-dioxin]
Hepatic cholesterol ester level, fold increase [1]: 11.3 fold
Hepatic cholesterol level, fold increase ([1]; not confirmed by high resolution MS/MS): 9.0 fold
Inflammation surrounding the bile ducts (pericholangitis) ([2]; 30 µg/kg TCDD every 4 d for 28 d, male vs female): exclusive to males
Bile duct proliferation, Incidence [2, 3]: 0/8
Fibrosis (periportal), Incidence [2, 3]: 0/8
Necrosis; Inflammatory cell foci, Incidence [2, 3]: 0/8
Vacuolation (centrilobular), Incidence [2, 3]: 0/8
Bile duct proliferation, Incidence [2, 4]: 0/6
Fibrosis (periportal), Incidence [2, 4]: 0/6
Necrosis; Inflammatory cell foci, Incidence [2, 4]: 0/6
Vacuolation (centrilobular), Incidence [2, 4]: 0/6
Bile duct proliferation, Incidence [2, 5]: 0/6
Fibrosis (periportal), Incidence [2, 5]: 0/6
Necrosis; Inflammatory cell foci, Incidence [2, 5]: 0/6
Vacuolation (centrilobular), Incidence [2, 5]: 0/6
Bile duct proliferation, Incidence [2, 6]: 0/4
Fibrosis (periportal), Incidence [2, 6]: 0/4
Necrosis; Inflammatory cell foci, Incidence [2, 6]: 0/4
Vacuolation (centrilobular), Incidence [2, 6]: 1/4
Bile duct proliferation, Incidence [2, 7]: 1/4
Fibrosis (periportal), Incidence [2, 7]: 1/4
Necrosis; Inflammatory cell foci, Incidence [2, 7]: 1/4
Vacuolation (centrilobular), Incidence [2, 7]: 4/4
Bile duct proliferation, Mean Grade [2, 7]: 0.3 ± 0.5
Fibrosis (periportal), Mean Grade [2, 7]: 0.3 ± 0.5
Necrosis; Inflammatory cell foci, Mean Grade [2, 7]: 0.3 ± 0.5
Vacuolation (centrilobular), Mean Grade [2, 7]: 2.0 ± 1.2
Dose at which hepatocyte vacuolization (fatty change) was first observed ([2]; females): 10 µg/kg
Doses at which minimal to slight hepatocyte necrosis and inflammatory cell infiltration were present ([2]; females): 30 µg/kg
Bile duct proliferation, Incidence [2, 8]: 0/8
Fibrosis (periportal), Incidence [2, 8]: 0/8
Necrosis; Inflammatory cell foci, Incidence [2, 8]: 0/8
Vacuolation (centrilobular), Incidence [2, 8]: 1/8
Vacuolation (centrilobular), Mean Grade [2, 8]: 0.1 ± 0.4
Bile duct proliferation, Incidence [2, 9]: 0/8
Fibrosis (periportal), Incidence [2, 9]: 0/8
Necrosis; Inflammatory cell foci, Incidence [2, 9]: 0/8
Vacuolation (centrilobular), Incidence [2, 9]: 5/8
Vacuolation (centrilobular), Mean Grade [2, 9]: 0.9 ± 0.8
Bile duct proliferation, Incidence [2, 10]: 0/8
Fibrosis (periportal), Incidence [2, 10]: 0/8
Necrosis; Inflammatory cell foci, Incidence [2, 10]: 2/8
Vacuolation (centrilobular), Incidence [2, 10]: 6/8
Necrosis; Inflammatory cell foci, Mean Grade [2, 10]: 0.3 ± 0.5
Vacuolation (centrilobular), Mean Grade [2, 10]: 1.0 ± 0.8
Bile duct proliferation, Incidence [2, 11]: 0/8
Fibrosis (periportal), Incidence [2, 11]: 0/8
Necrosis; Inflammatory cell foci, Incidence [2, 11]: 6/8
Vacuolation (centrilobular), Incidence [2, 11]: 8/8
Necrosis; Inflammatory cell foci, Mean Grade [2, 11]: 0.8 ± 0.5
Vacuolation (centrilobular), Mean Grade [2, 11]: 3.0 ± 0.5
Bile duct proliferation, Incidence [2, 12]: 5/8
Fibrosis (periportal), Incidence [2, 12]: 5/8
Necrosis; Inflammatory cell foci, Incidence [2, 12]: 8/8
Vacuolation (centrilobular), Incidence [2, 12]: 8/8
Bile duct proliferation, Mean Grade [2, 12]: 0.9 ± 0.8
Fibrosis (periportal), Mean Grade [2, 12]: 0.6 ± 0.5
Necrosis; Inflammatory cell foci, Mean Grade [2, 12]: 1.3 ± 0.5
Vacuolation (centrilobular), Mean Grade [2, 12]: 4.0 ± 0.0
Dose at which hepatocyte vacuolization (fatty change) was first observed ([2]; males): 0.3 µg/kg
Doses at which minimal to slight hepatocyte necrosis and inflammatory cell infiltration were present ([2]; males): ≥ 3 µg/kg
